Measured values from patent US20100278925A1, “FORMULATIONS OF ORGANO-PLATINIC COMPOUNDS IN THE PRESENCE OF ASSOCIATIVE POLYMERS, PRODUCTS THUS OBTAINED AND USES THEREOF” (Coatex S.A. S., priority 2007, published 2010).

Assay: Reference tests: oxaliplatin added into water without polymer or with non-associative polymer
Type: physicochemical
Settings: oxaliplatin 10.5 g/L in water, pH 7, without polymer
Description: This test is a reference which consists of adding the oxaliplatin into water, without the associative water-soluble polymer.
This test is a reference which consists of adding the oxaliplatin into water, […].
Next, 1.9 g of a water-soluble polymer with 30% solids content, said polymer being made up 36.9% by weight of methacrylic acid and 63.1% by weight of ethyl acrylate.

With `O=C1[O][Pt]2([NH][C@@H]3CCCC[C@H]3[NH]2)[O]C1=O` [oxaliplatin] the “Appearance of the result” value was “powder suspended in the water”.
